# Measured values reported in patent US7855228B2, “Antibiotics targeting MreB” (The Board of Trustees of the Leland Stamford Junior …, priority 2005, dated 2010).
# Read-outs that look alike come from different tables or passages of the source.
# Experiments:
# GFP-MreB [1] = molecular target: T1, GFP-MreB (Caulobacter vibrioides, UniProt A0A0H3C7V4); test: GFP-MreB localization; format: cell-based, Caulobacter crescentus
# T1 construct: expressed in transfected cells; host or cells: Caulobacter crescentus CB15N derivative, xylose-inducible Pxyl:gfp-mreB
# T1 sequence (A0A0H3C7V4 whole entry): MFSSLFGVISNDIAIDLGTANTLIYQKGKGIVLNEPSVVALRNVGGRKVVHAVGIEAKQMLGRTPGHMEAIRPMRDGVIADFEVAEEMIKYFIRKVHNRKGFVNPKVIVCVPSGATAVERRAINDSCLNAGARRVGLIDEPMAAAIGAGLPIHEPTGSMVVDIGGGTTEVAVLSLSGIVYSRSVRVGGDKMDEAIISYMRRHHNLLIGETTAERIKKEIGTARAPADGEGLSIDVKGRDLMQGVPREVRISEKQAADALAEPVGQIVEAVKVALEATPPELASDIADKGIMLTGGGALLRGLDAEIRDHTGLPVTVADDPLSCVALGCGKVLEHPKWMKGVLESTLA
# Experimental: (§1) A22 Rapidly and Reversibly Delocalizes GFP-MreB. During the Caulobacter cell cycle, MreB forms a lengthwise spiral in swarmer cells and stalked cells. It then appears to condense into an increasingly tight ring positioned at the future site of cell division. When cytokinesis initiates, this ring is replaced by a lengthwise spiral, such that upon cell division each daughter cell inherits a fully expanded spiral. […] Since 10 μg/ml of A22 strongly delocalizes GFP-MreB and blocks cell division without completely inhibiting cell growth, we have chosen to focus most of our subsequent A22 studies on this concentration.
# (§2) The onset of A22's effect on GFP-MreB is very rapid: within 1 min the GFP-MreB already delocalized (FIG. 4B). A22's effect on GFP-MreB is also rapidly reversible. Diluting the A22 concentration of cells treated with A22 for 1 hr by mounting them on pads lacking A22 leads to a full recovery of MreB localization within 1 min (FIG. 4C). GFP-MreB was monitored in the same cells before, during, and after A22 treatment by timelapse imaging cells in a flow chamber that allows A22 to be washed in and out (FIGS. 4D-4F). […] Cells generally retained a memory of the MreB structure present before A22 treatment (FIGS. […]). Cells with rings recovered rings, cells with spirals recovered spirals, and cells with partially compacted rings recovered partially compacted rings. These findings are consistent with MreB's localization being determined by extrinsic factors regulated by the cell cycle state, rather than an intrinsic MreB localization cycle.
# (§3) We constructed a fusion of the most common A22-resistant mreB missense mutation (T158A) to GFP and asked if the cellular organization of this MreB mutant is maintained in 10 μg/ml of A22. This fusion was expressed in the corresponding A22-resistant strain, producing merodiploid cells containing both GFP-tagged and -untagged mutated mreB, but no wild-type mreB. […] Since this mutation in the MreB ATP binding pocket perturbs MreB dynamic localization, nucleotide hydrolysis may play a role in regulating MreB dynamics.
# (§4) Microscopy and Timelapse Imaging. All experiments other than the A22 flow-cell analysis were performed by mounting the samples on 1% agarose pads as described, with the appropriate concentration of A22 added to the agarose. The rates of origin-distal locus segregation were determined by inducing PxyI:lacI:cfp expression with 0.03% xylose for 75 min, isolating swarmer cells, and growing the swarmer cells in M2G liquid medium for 50 min. After 50 min, 10 μg/ml of A22 was added to these liquid cultures, they were mounted onto 1% M2G agarose pads containing 10 μg/ml A22, and a phase and CFP fluorescence image was captured every 2 min for 60 min. The images were analyzed by previously described software to determine the average position and rate of movement of the observed foci.
# (§5) The A22 flow-cell treatment timelapse images were performed on PxyI:gfp-mreB cells induced for 2 hr with 0.03% xylose. These cells were adhered to polylysine-coated cover slips. The cover slips were then adhered to microscope slides with two parallel strips of double-sided tape (3M), leaving a central channel. An excess of medium containing 0 or 10 μg/ml A22 was pipetted onto one opening of this channel and wicked through by placing a tissue (VWR) on the other end. Images were collected every 30 s.
# GFP-MreB [2] = molecular target: T2, GFP-MreB (Caulobacter vibrioides, UniProt A0A0H3C7V4, T167A); test: GFP-MreB localization; format: cell-based, Caulobacter crescentus; settings: 10 μg/ml; A22-resistant strain
# T2 construct: expressed in transfected cells; host or cells: Caulobacter crescentus CB15N derivative, xylose-inducible Pxyl:gfp-mreB
# T2 sequence (A0A0H3C7V4 whole entry T167A): as the sequence (A0A0H3C7V4 whole entry) above, with T167A counted along it
# Experimental: as §1, §2, §3, §4, §5
# HoIB-GFP = HoIB-GFP (replisome) localization; format: cell-based, Caulobacter crescentus; settings: 1 hr treatment
# Experimental: To assess the ability of these cells to assemble a replisome at the replication origins, A22 was administered to cells expressing a fusion of GFP to the HoIB subunit of DNA polymerase.
# [3] = tested on: E. coli K-12 strains (ponB, mreB alleles); test: MICs of mecillinam and A22 for E. coli K-12 strains; format: cell-based; settings: for MIC: Escherichia coli
# Experimental: Determination of MIC Minimal inhibitory concentrations (MICs) were determined using a standard 2-fold serial dilution format on L agar plates. Ten microliters of stationary culture diluted in 0.85% NaCl to 10^6 cells/ml were spotted on per plate. […] MICs were also determined on Mueller Hinton agar plates (0.2% beef extract, 1.75% acid digest of casein, 0.15% soluble starch, 1.5% agar, pH 7.3).
smiles,measurement,setting,value
"N=C(N)SCc1ccc(Cl)c(Cl)c1 [Compound 1, S-(3,4-dichlorobenzyl)isothiourea]",GFP-MreB localization (puncta and bands),GFP-MreB [1]; 1 μg/ml or less,largely maintained
same,Onset of GFP-MreB delocalization,GFP-MreB [1]; 10 μg/ml,≤ 1 min
same,GFP-MreB localization,GFP-MreB [1]; 10 or 100 μg/ml,completely disrupted this GFP-MreB localization
same,Full recovery of MreB localization after diluting A22,"GFP-MreB [1]; cells treated 1 hr, mounted on pads lacking A22",≤ 1 min
same,Localization of mutated (T158A) GFP-MreB,GFP-MreB [2],completely unaffected
same,HoIB-GFP localization,HoIB-GFP,no effect on HoIB-GFP localization
same,MIC,"[3]; read-out: MICs, strain JA221 (ponB −, mreB221)",100 µg/mL
same,MIC,"[3]; read-out: MICs, strain JE1011 (ponB +, mreB +)",6.25 µg/mL
same,MIC,"[3]; read-out: MICs, strain JM109/pMW218 (ponB +, mreB +/−)",6.25 µg/mL
same,MIC,"[3]; read-out: MICs, strain JM109/pMreB1 (ponB +, mreB +/+)",25 µg/mL
same,MIC,"[3]; read-out: MICs, strain JM109/pMreB221 (ponB +, mreB +/mreB221)",100 µg/mL
same,MIC,"[3]; read-out: MICs, strain JST975 (ponB −, mreB +)",1.6 µg/mL
same,MIC,"[3]; read-out: MICs, strain JSTA220 (ponB −, mreB +)",3.12 µg/mL
same,MIC,"[3]; read-out: MICs, strain JSTA221 (ponB −, mreB221)",100 µg/mL
same,MIC,"[3]; read-out: MICs, strain WA220 (ponB +, mreB +)",6.25 µg/mL
same,MIC,"[3]; read-out: MICs, strain WA221 (ponB +, mreB221)",> 100 µg/mL
same,MICs,"[3]; strain JST975 (ponB −, mreB +), listed as A22",3.125 µg/mL
